Measured values from US12539292B2, “BRM targeting compounds and associated methods of use” (Arvinas Operations, Inc., priority 2018, dated 2026).
Where two headings read alike, the source gives them in different places.

Biological target: T1, BRM (Homo sapiens, UniProt P51531)
T1 construct: In-Cell Western Screen of BRM Degradation in SW1573 Cells; endogenous in cells; host or cells: SW1573
Assay: In-cell Western screen of BRM degradation in SW1573 cells (Dmax and DC50)
Format: cell-based
Conditions: BRM degradation, SW1573 cells
Method: In-Cell Western Screen of BRM Degradation in SW1573 Cells
To assess BRM degradation (Dmax and DC50), cells were seeded at 8000/well in 96-well black/clear-bottom plates in 180 μL DMEM growth media (containing 1% pen-strep, 1% HEPES and 10% FBS) per well. Plates were incubated overnight to allow adhesion. The next morning cells were treated by adding 20 μL of 10× compound (1% DMSO) to appropriate wells and returned to incubator for overnight (18-20 hours). The final DMSO concentration was 0.1%.
For processing, the plates were removed from incubator, the media was removed, and immediately 200 μL of cold (4° C.) DPBS was added to all wells. DPBS was then removed, and 50 μL of 4% paraformaldehyde (PFA) in DPBS (4° C.) was added to all wells, and the plates were incubated at room temperature for 20 minutes. PFA was then removed, and 200 μL of TBS-T containing 0.5% Triton X-100 was added to all wells, and the plates were incubated at room temperature for 30 minutes. TBS-T containing 0.5% Triton X-100 was then removed, and 50 μL of Li-Cor blocking solution was added, and the plates were incubated at room temperature for a minimum of one hour.
The next day plates were washed three times with TBS-T, 200 μL per well. Fifty (50) μL of secondary antibody cocktail in LI-COR blocking solution (anti-rabbit_800 nm and anti-mouse_680 nm) was added to all wells (diluted 1:5000). The plates were incubated at room temperature for at least one hour while protected from light. The plates were washed twice with TBS-T, 200 μL per well.
To read each plate TBS-T was removed, and each plate was inverted tapped on a paper towel. The plates were read on the LI-COR Odyssey with default intensity settings of 5.0 for both channels. LI-COR images were analyzed with the in-cell Western feature of Image Studio Lite.

[1] = Table 2D, read-out: **Dmax (%) (% degraded)

T1 sequence (P51531 whole entry): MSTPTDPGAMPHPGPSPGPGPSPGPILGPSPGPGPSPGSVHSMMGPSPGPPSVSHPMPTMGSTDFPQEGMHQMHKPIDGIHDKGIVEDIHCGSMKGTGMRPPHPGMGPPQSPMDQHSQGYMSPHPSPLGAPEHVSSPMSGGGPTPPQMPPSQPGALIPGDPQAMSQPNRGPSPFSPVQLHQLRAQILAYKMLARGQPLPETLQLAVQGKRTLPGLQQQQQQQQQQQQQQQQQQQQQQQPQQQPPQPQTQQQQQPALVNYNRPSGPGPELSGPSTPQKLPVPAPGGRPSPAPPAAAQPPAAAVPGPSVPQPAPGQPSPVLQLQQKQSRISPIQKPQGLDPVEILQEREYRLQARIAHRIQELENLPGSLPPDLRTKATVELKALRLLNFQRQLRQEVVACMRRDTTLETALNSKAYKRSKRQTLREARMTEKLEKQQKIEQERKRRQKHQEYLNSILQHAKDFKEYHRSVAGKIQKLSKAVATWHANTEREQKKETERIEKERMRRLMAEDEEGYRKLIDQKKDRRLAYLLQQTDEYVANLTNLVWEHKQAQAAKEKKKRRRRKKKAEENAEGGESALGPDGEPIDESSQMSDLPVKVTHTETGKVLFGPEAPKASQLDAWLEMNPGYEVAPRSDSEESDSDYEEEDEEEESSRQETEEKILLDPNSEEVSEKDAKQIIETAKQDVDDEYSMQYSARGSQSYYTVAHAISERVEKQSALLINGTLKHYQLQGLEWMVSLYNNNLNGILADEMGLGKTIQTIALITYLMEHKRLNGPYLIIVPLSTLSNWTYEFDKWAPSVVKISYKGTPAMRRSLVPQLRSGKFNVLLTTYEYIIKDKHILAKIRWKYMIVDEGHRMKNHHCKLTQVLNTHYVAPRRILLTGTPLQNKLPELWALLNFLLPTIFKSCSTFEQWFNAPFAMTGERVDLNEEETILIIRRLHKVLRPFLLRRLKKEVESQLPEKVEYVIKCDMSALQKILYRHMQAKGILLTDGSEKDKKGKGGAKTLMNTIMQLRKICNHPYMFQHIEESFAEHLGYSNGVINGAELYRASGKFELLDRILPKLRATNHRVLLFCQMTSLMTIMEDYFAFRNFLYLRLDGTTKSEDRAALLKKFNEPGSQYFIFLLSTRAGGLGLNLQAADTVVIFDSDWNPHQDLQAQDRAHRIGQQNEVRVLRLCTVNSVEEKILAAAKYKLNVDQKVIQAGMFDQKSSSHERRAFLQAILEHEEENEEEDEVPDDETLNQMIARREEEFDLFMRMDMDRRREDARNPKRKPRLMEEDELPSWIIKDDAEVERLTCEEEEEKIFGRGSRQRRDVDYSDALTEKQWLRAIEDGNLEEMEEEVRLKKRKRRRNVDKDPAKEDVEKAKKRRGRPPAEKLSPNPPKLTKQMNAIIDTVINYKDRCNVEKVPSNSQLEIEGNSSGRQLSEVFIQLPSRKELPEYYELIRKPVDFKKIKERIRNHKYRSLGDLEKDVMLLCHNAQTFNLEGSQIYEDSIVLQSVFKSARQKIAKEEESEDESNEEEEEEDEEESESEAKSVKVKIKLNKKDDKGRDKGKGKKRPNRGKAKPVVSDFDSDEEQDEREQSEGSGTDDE

| Structure (SMILES) | Dmax [1] [%] | DC50 (Table 2D, read-out: *DC50) [nM] | DC50 (read-out: DC50) [nM] | Dmax (read-out: Dmax (% degraded)) [%] |
| --- | --- | --- | --- | --- |
| Cc1ncsc1-c1ccc([C@H](C)NC(=O)[C@@H]2C[C@@H](O)CN2C(=O)[C@@H](c2cc(OCC[C@@H]3CCN(C[C@H]4C[C@H](Oc5cc(N6C7CCC6CN(c6cc(-c8ccccc8O)nnc6N)C7)ccn5)C4)[C@@H](C)C3)no2)C(C)C)cc1 (racemic) [compound 582, (2S,4R)-1-((2R)-2-(3-(2-((2S,4R)-1-(((1r,3S)-3-((4-(3-(3-amino-6-(2-hydroxyphenyl)pyridazin-4-yl)-3,8-diazabicyclo[3.2.1]octan-8-yl)pyridin-2-yl)oxy)cyclobutyl)methyl)-2-methylpiperidin-4-yl)ethoxy)isoxazol-5-yl)-3-methylbutanoyl)-4-hydroxy-N-((S)-1-(4-(4-methylthiazol-5-yl)phenyl)ethyl)pyrrolidine-2-carboxamide] | > 75 | < 2.5 | – | – |
| Cc1ncsc1-c1ccc([C@H](C)NC(=O)[C@@H]2C[C@@H](O)CN2C(=O)C(c2cc(OCCN3[C@H](C)C[C@H](O[C@H]4C[C@H](Oc5cc(N6C7CCC6CN(c6cc(-c8ccccc8O)nnc6N)C7)ccn5)C4)C[C@@H]3C)no2)C(C)C)cc1 (mixture of isomers) [compound 635, (2S,4R)-1-(2-(3-(2-((2S,4S,6R)-4-((1r,3R)-3-((4-(3-(3-amino-6-(2-hydroxyphenyl)pyridazin-4-yl)-3,8-diazabicyclo[3.2.1]octan-8-yl)pyridin-2-yl)oxy)cyclobutoxy)-2,6-dimethylpiperidin-1-yl)ethoxy)isoxazol-5-yl)-3-methylbutanoyl)-4-hydroxy-N-((S)-1-(4-(4-methylthiazol-5-yl)phenyl)ethyl)pyrrolidine-2-carboxamide] | – | – | < 2.5 | > 75 |
| Cc1ncsc1-c1ccc([C@H](C)NC(=O)[C@@H]2C[C@@H](O)CN2C(=O)[C@@H](c2cc(N3CCC(CN4CCC([C@H](C)n5cc(-c6cc(-c7ccccc7O)nnc6N)cn5)CC4)CC3)no2)C(C)C)cc1 (single isomer, unassigned) [compound 573] | > 75 | < 2.5 | – | – |
| Cc1ncsc1-c1ccc([C@H](C)NC(=O)[C@@H]2C[C@@H](O)CN2C(=O)[C@@H](c2cc(N3CCC(CN4CCC([C@@H](C)n5cc(-c6cc(-c7ccccc7O)nnc6N)cn5)CC4)CC3)no2)C(C)C)cc1 (single isomer, unassigned) [compound 574] | > 75 | < 2.5 | – | – |
| Cc1ncsc1-c1ccc([C@H](C)NC(=O)[C@@H]2C[C@@H](O)CN2C(=O)[C@H](c2cc(OCC[C@@H]3CCN(C[C@H]4C[C@H](Oc5cc(N6C7CCC6CN(c6cc(-c8ccccc8O)nnc6N)C7)ccn5)C4)[C@H](C)[C@@H]3C)no2)C(C)C)cc1 (single isomer, unassigned) [compound 583] | – | > 30 | – | – |
| Cc1ncsc1-c1ccc([C@H](C)NC(=O)[C@@H]2C[C@@H](O)CN2C(=O)[C@@H](c2cc(OCC[C@@H]3CCN(C[C@H]4C[C@H](Oc5cc(N6C7CCC6CN(c6cc(-c8ccccc8O)nnc6N)C7)ccn5)C4)[C@H](C)[C@@H]3C)no2)C(C)C)cc1 (single isomer, unassigned) [compound 584] | > 75 | < 2.5 | – | – |
| Cc1ncsc1-c1ccc([C@H](C)NC(=O)[C@@H]2C[C@@H](O)CN2C(=O)[C@H](c2cc(OCC[C@H]3CCN(C[C@H]4C[C@H](Oc5cc(N6C7CCC6CN(c6cc(-c8ccccc8O)nnc6N)C7)ccn5)C4)[C@@H](C)[C@H]3C)no2)C(C)C)cc1 (single isomer, unassigned) [compound 585] | > 75 | 2.5 to 10 | – | – |
| Cc1ncsc1-c1ccc([C@H](C)NC(=O)[C@@H]2C[C@@H](O)CN2C(=O)[C@@H](c2cc(OCC[C@H]3CCN(C[C@H]4C[C@H](Oc5cc(N6C7CCC6CN(c6cc(-c8ccccc8O)nnc6N)C7)ccn5)C4)[C@@H](C)[C@H]3C)no2)C(C)C)cc1 (single isomer, unassigned) [compound 586] | > 75 | < 2.5 | – | – |
| Cc1ncsc1-c1ccc([C@H](C)NC(=O)[C@@H]2C[C@@H](O)CN2C(=O)[C@H](c2cc(N3CCC(OC4CCN(CC5CC(CN6CCC([C@H](C)n7cc(-c8cc(-c9ccccc9O)nnc8N)cn7)CC6)C5)CC4)CC3)no2)C(C)C)cc1 (single isomer, unassigned) [compound 593] | > 75 | < 2.5 | – | – |
| Cc1ncsc1-c1ccc([C@H](C)NC(=O)[C@@H]2C[C@@H](O)CN2C(=O)[C@@H](c2cc(N3CCC(OC4CCN(CC5CC(CN6CCC([C@H](C)n7cc(-c8cc(-c9ccccc9O)nnc8N)cn7)CC6)C5)CC4)CC3)no2)C(C)C)cc1 (single isomer, unassigned) [compound 594] | > 75 | < 2.5 | – | – |
| Cc1ncsc1-c1ccc([C@H](C)NC(=O)[C@@H]2C[C@@H](O)CN2C(=O)[C@H](c2cc(N3CCC(OC4CCN(CC5CC(CN6CCC([C@@H](C)n7cc(-c8cc(-c9ccccc9O)nnc8N)cn7)CC6)C5)CC4)CC3)no2)C(C)C)cc1 (single isomer, unassigned) [compound 595] | > 75 | < 2.5 | – | – |
| Cc1ncsc1-c1ccc([C@H](C)NC(=O)[C@@H]2C[C@@H](O)CN2C(=O)[C@@H](c2cc(N3CCC(OC4CCN(CC5CC(CN6CCC([C@@H](C)n7cc(-c8cc(-c9ccccc9O)nnc8N)cn7)CC6)C5)CC4)CC3)no2)C(C)C)cc1 (single isomer, unassigned) [compound 596] | > 75 | < 2.5 | – | – |
| Cc1ncsc1-c1ccc([C@H](C)NC(=O)[C@@H]2C[C@@H](O)CN2C(=O)[C@@H](c2cc(OCCN3CC[C@@H](O[C@H]4C[C@H](Oc5cc(N6C7CCC6CN(c6cc(-c8ccccc8O)nnc6N)C7)ccn5)C4)C[C@H]3C)no2)C(C)C)cc1 (single isomer, unassigned) [compound 634] | – | – | < 2.5 | > 75 |
| Cc1ncsc1-c1ccc([C@H](C)NC(=O)[C@@H]2C[C@@H](O)CN2C(=O)[C@@H](c2cc(OCCN3CC[C@H](O[C@H]4C[C@H](Oc5cc(N6C7CCC6CN(c6cc(-c8ccccc8O)nnc6N)C7)ccn5)C4)C[C@@H]3C)no2)C(C)C)cc1 (single isomer, unassigned) [compound 636] | – | – | < 2.5 | > 75 |
| Cc1nccn1-c1ccc([C@H](C)NC(=O)[C@@H]2C[C@@H](O)CN2C(=O)[C@H](c2cc(N3CCC(CN4CCC(O[C@H]5C[C@H](C#C[C@@H](C)n6cc(-c7cc(-c8ccccc8O)nnc7N)cn6)C5)CC4)CC3)no2)C(C)C)cc1 (single isomer, unassigned) [compound 637] | – | – | 2.5 to 10 | > 75 |
| Cc1nccn1-c1ccc([C@H](C)NC(=O)[C@@H]2C[C@@H](O)CN2C(=O)[C@@H](c2cc(N3CCC(CN4CCC(O[C@H]5C[C@H](C#C[C@@H](C)n6cc(-c7cc(-c8ccccc8O)nnc7N)cn6)C5)CC4)CC3)no2)C(C)C)cc1 (single isomer, unassigned) [compound 638] | – | – | < 2.5 | > 75 |
| Cc1ncsc1-c1ccc([C@H](C)NC(=O)[C@@H]2C[C@@H](O)CN2C(=O)[C@@H](c2cc(N3CCC[C@H](CN4CCC(O[C@H]5C[C@H](Oc6cc(N7C8CCC7CN(c7cc(-c9ccccc9O)nnc7N)C8)ccn6)C5)CC4)C3)no2)C(C)C)cc1 (single isomer, unassigned) [compound 656] | – | – | < 2.5 | > 75 |
| Cc1ncsc1-c1ccc([C@H](C)NC(=O)[C@@H]2C[C@@H](O)CN2C(=O)[C@@H](c2cc(N3CCC[C@@H](CN4CCC(O[C@H]5C[C@H](Oc6cc(N7C8CCC7CN(c7cc(-c9ccccc9O)nnc7N)C8)ccn6)C5)CC4)C3)no2)C(C)C)cc1 (single isomer, unassigned) [compound 657] | – | – | < 2.5 | > 75 |
| CC(C)[C@H](C(=O)N1C[C@H](O)C[C@H]1C(=O)N[C@@H](C)c1ccc(C#N)cc1)c1cc(N2CCC(CN3CCC(O[C@H]4C[C@H](C#C[C@@H](C)n5cc(-c6cc(-c7ccccc7O)nnc6N)cn5)C4)CC3)CC2)no1 (single isomer, unassigned) [compound 697] | – | – | > 30 | – |
| CC(C)[C@@H](C(=O)N1C[C@H](O)C[C@H]1C(=O)N[C@@H](C)c1ccc(C#N)cc1)c1cc(N2CCC(CN3CCC(O[C@H]4C[C@H](C#C[C@@H](C)n5cc(-c6cc(-c7ccccc7O)nnc6N)cn5)C4)CC3)CC2)no1 (single isomer, unassigned) [compound 698] | – | – | < 2.5 | > 75 |
